The test addresses T1, 3-phosphoinositide-dependent protein kinase 1 (Homo sapiens, UniProt O15530).
T1 sequence (O15530 whole entry): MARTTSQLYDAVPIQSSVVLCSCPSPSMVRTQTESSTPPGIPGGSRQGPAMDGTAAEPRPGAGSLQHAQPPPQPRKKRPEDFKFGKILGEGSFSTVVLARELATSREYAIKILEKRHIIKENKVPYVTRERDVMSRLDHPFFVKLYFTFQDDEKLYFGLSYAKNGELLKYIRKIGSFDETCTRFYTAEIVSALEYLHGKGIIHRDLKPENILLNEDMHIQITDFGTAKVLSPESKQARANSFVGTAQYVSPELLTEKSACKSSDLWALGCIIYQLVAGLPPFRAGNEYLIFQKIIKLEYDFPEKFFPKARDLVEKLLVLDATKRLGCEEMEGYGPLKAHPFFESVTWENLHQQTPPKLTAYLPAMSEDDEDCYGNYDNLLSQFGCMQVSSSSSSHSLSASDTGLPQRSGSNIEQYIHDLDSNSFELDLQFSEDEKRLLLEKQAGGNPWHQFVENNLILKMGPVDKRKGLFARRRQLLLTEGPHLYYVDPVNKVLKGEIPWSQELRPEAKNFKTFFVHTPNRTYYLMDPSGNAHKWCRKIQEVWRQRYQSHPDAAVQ
The test is described as follows: ELISA assay. The settings on record: pH 7.4; 23 °C. On the procedure: A homogeneous in vitro assay based on a LANCE format was first used for high-throughput screening. […] ELISA IC50s were determined by Microsoft Excel data analysis wizard model 63 with the luminescent signal from wells without compound treatment as 100%.
(In general: ELISA stands for enzyme-linked immunosorbent assay.)

Results on one compound are retold here after BindingDB's records for doi:10.1021/jm070851i (Wyeth Research, 2007).

Take `COc1cc2c(cc1NCCN1CCOCC1)ncc1c(N)nc3c(C)c(N)ccc3c12` [16-methoxy-6-methyl-15-N-[2-(morpholin-4-yl)ethyl]-8,12-diazatetracyclo[8.8.0.0^{2,7}.0^{13,18}]octadeca-1(10),2(7),3,5,8,11,13,15,17-nonaene-5,9,15-triamine]: it took 300 nM to reach half-maximal inhibition (IC50).
